Measurements taken from ChEMBL document CHEMBL1201862, “PubChem BioAssay data set” (2004).
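Compound exposure: 48 hours, 5 concentrations, 96-well plates. At the GI50, growth is halved.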 Active and inactive are the calls of the source. No stated cut-off is given here; in the data, active = GI50 up to about 1.1 µM and inactive = higher.

Key:
Test in all cases: NCI-60 cell line screen, 48 h
ACHN = tested on: ACHN
CAKI-1 = tested on: CAKI-1
MOLT-4 = tested on: MOLT-4
EKVX = tested on: EKVX
HOP-62 = tested on: HOP-62
Malme-3M = tested on: Malme-3M
HCT-15 = tested on: HCT-15
OVCAR-8 = tested on: OVCAR-8
MDA-MB-435 = tested on: MDA-MB-435
786-0 = tested on: 786-0
SF-268 = tested on: SF-268
HL-60 = tested on: HL-60
M14 = tested on: M14
DU-145 = tested on: DU-145
IGROV-1 = tested on: IGROV-1
SN12C = tested on: SN12C
SNB-19 = tested on: SNB-19
NCI-H23 = tested on: NCI-H23
NCI-H226 = tested on: NCI-H226
LOX IMVI = tested on: LOX IMVI

SMILES | GI50 (ACHN) | GI50 (CAKI-1) | GI50 (MOLT-4) | GI50 (EKVX) | GI50 (HOP-62) | GI50 (Malme-3M) | GI50 (HCT-15) [µM] | GI50 (OVCAR-8) | GI50 (MDA-MB-435) | GI50 (786-0) | GI50 (SF-268) | GI50 (HL-60) | GI50 (M14) | GI50 (DU-145) | GI50 (IGROV-1) | GI50 (SN12C) | GI50 (SNB-19) | GI50 (NCI-H23) | GI50 (NCI-H226) | GI50 (LOX IMVI)
NC1CC(=O)c2sc(I)cc21 (stereo not drawn) | > 100 µM (inactive) | 40.3 µM (inactive) | 71.9 µM (inactive) | > 100 µM (inactive) | > 100 µM (inactive) | > 100 µM (inactive) | 35.8 | > 100 µM (inactive) | 88.7 µM (inactive) | > 100 µM (inactive) | > 100 µM (inactive) | 18.7 µM (inactive) | > 100 µM (inactive) | > 100 µM (inactive) | > 100 µM (inactive) | > 100 µM (inactive) | > 100 µM (inactive) |  |  | 
C[C@H](NC(=O)CNC(=O)CCCCCC(=O)NCC(=O)N[C@@H](C)C(=O)OCc1ccccc1)C(=O)OCc1ccccc1 | > 100 µM (inactive) | > 100 µM (inactive) | > 100 µM (inactive) | > 100 µM (inactive) | > 100 µM (inactive) | > 100 µM (inactive) | > 100 | > 100 µM (inactive) | > 100 µM (inactive) | > 100 µM (inactive) | > 100 µM (inactive) |  | > 100 µM (inactive) | > 100 µM (inactive) | > 100 µM (inactive) | > 100 µM (inactive) | > 100 µM (inactive) | > 100 µM (inactive) | > 100 µM (inactive) | > 100 µM (inactive)
Nn1c(-c2ccccc2)nn(C(=O)c2ccccc2)c1=O | > 100 µM (inactive) |  | > 100 µM (inactive) | > 100 µM (inactive) | > 100 µM (inactive) | > 100 µM (inactive) | > 100 | > 100 µM (inactive) | > 100 µM (inactive) | > 100 µM (inactive) | > 100 µM (inactive) | > 100 µM (inactive) | > 100 µM (inactive) | > 100 µM (inactive) | > 100 µM (inactive) | 87.1 µM (inactive) | > 100 µM (inactive) | > 100 µM (inactive) | > 100 µM (inactive) | > 100 µM (inactive)
O=S1(=O)OCc2ccccc21 | 61.5 µM (inactive) |  | 15.7 µM (inactive) | > 100 µM (inactive) | 10.2 µM (inactive) | > 100 µM (inactive) | 59.3 | > 100 µM (inactive) | 58.1 µM (inactive) | 60.1 µM (inactive) | > 100 µM (inactive) | 59.3 µM (inactive) | > 100 µM (inactive) | > 100 µM (inactive) | > 100 µM (inactive) | > 100 µM (inactive) | > 100 µM (inactive) | > 100 µM (inactive) | 97.5 µM (inactive) | 
